Key:
[1] = system: N. gonorrheae (Ceftriaxone Resistant); experiment: N-Assay antibiotic susceptibility, N. gonorrheae with Ceftriaxone (Example 6); type: cell-based, Neisseria gonorrheae; conditions: With Ceftriaxone Present, 2 μg/ml
Description: (§1) Prior to performing the N-Assay, bacterial cultures were prepared as follows in order to establish the sensitivity of the assay. An inoculum was taken from a stock culture, and plated onto solid phase nutrient agar and incubated overnight at 37° C. E. faecalis, E. faecium (Vancomycin-Resistant Enterococcus, or VRE) and GBS isolates were plated onto colistin and naladixic acid agar, and N. gonorrheae was plated onto chocolate agar. The gonorrheal culture was performed in a CO2 incubator. Following an overnight culture, an isolated colony was selected of each bacterial species, and the isolated colonies were sub-cultured on solid phase for an additional 24 hours to ensure adequate viability was maintained. Following this, isolated cultures were used to inoculate nutrient broth (LIM broth was used for GBS, Fastidious broth with isovitalex 2% v/v for N. gonorrheae, and BHI broth was used for E. faecalis, E. faecium). A 0.5 McFarland was prepared for each bacterial species, and these were then diluted serially down to 10^−3 in nutrient broth and the OD630 immediately was determined. For each dilution, aliquots were obtained and agar plates were inoculated. The agar plates then were incubated at 37° C. for 24 hours, and the number of colony forming units (CFU) was determined for each bacterial species at each dilution. This was used to generate a standard curve, so that future dilutions when prepared could be developed with known concentrations of bacteria. […] A similar curve was generated for each bacteria studied.
(§2) Antibodies against selected bacteria were diluted 1:100 in coating buffer (carbonate bicarbonate buffer), and 100 μl were placed in microtiter wells and allowed to stand overnight at 4° C. The following day, wells were washed with PBS TWEEN 20 three times, and then blocked with 200 μl of STARTINGBLOCK for 30 minutes at room temperature. Following blocking, wells were washed three times with PBS TWEEN 20, and plates were either stored at 4° C. with a sterile cover placed over them for later use, or used immediately.
(§3) To determine antibiotic susceptibility of the four strains of bacteria, a 0.5 Mcfarland was prepared in nutrient broth and serially dilutions were established. The dilutions were incubated overnight for 18-24 hours at 37° C. (in a CO2 incubator for N. gonorrheae) with specific antibiotics. Parallel dilutions were prepared of each bacterium, in the presence and absence of specific antibiotics, as follows: (1) for E. faecalis, E. faecium, Penicillin G was added in varying concentrations, and as these concentrations were held constant, the bacterial concentration was diluted out; (2) the same parameters were set for GBS with the antibiotic clindamycin; and (3) the same parameters were set for N. gonorrheae with the antibiotic ceftriaxone.
(§4) Following overnight incubation in the presence or absence of the selected antibiotics, 100 μl of the bacterial suspensions were placed into previously coated wells, and plates were allowed to stand at room temperature for 15 minutes. After washing with PBS TWEEN 20 three times, 100 μl of HRP-conjugated antibody directed against the specific bacteria was added in a 1:100 dilution, and allowed to stand at room temperature for 7 minutes. Wells were washed three times with PBS TWEEN 20, and bound antibody was detected by the addition of 100 μl of TMB substrate. OD450) was read after allowing the plate to stand for 3 minutes at room temperature and stopping the reaction with stop solution (KPL).
(§5) After adding stop solution, wells were read at OD450. […] Alternatively, wells were determined to be positive if they turned yellow after addition of the stop solution, if a plate reader was not available.
(§6) These studies were repeated for E. faecalis, E. faecium and N. gonorrheae. For E. faecalis and E. faecium, Penicillin G was used to distinguish between E. faecalis and E. faecium, as E. faecium is resistant to Penicillin G. For N. gonorrheae, the antibiotic used was ceftriaxone.

[2] = system: N. gonorrheae (Ceftriaxone Sensitive); experiment: as above; type: cell-based, Neisseria gonorrheae; conditions: summary of Table 3
Description: as §1, §2, §3, §4, §5, §6

[3] = system: Clindamycin Resistant Strain (GBS 11276); experiment: N-Assay antibiotic susceptibility, GBS with Clindamycin (Example 6); type: cell-based, Group B Streptococcus (GBS); conditions: for Detection of GBS: With Clindamycin Present, 4 μg/ml, 18 hour incubation in nutrient broth, resistant strain GBS 11276
Description: as §1, §2, §3
Following overnight incubation in the presence or absence of the selected antibiotics, 100 μl of the bacterial suspensions were placed into previously coated wells, and plates were allowed to stand at room temperature for 15 minutes. […] Wells were washed three times with PBS TWEEN 20, and bound antibody was detected by the addition of 100 μl of TMB substrate. OD450) was read after allowing the plate to stand for 3 minutes at room temperature and stopping the reaction with stop solution (KPL).
After adding stop solution, wells were read at OD450. […] Alternatively, wells were determined to be positive if they turned yellow after addition of the stop solution, if a plate reader was not available. […]

[4] = system: Enterococcus faecalis (Penicillin Sensitive); experiment: N-Assay antibiotic susceptibility, Enterococcus with Penicillin G (Example 6); type: cell-based; conditions: for Detection of Enterococcus faecalis: With Penicillin Present, 8 μg/ml Penicillin G, 18 hour incubation in nutrient broth
Description: as §1, §2, §3, §4, §5, §6

[5] = system: Enterococcus faecium (Penicillin Resistant, i.e., VRE); experiment: as above; type: cell-based; conditions: for Detection of Enterococcus faecium: With Penicillin Present, 8 μg/ml Penicillin G, 18 hour incubation in nutrient broth
Description: as §1, §2, §3, §4, §5, §6

[6] = system: penicillin-resistant (Pen-R) Strain 31426; experiment: Simultaneous identification of N. gonorrheae and antimicrobial susceptibility (Example 4); type: cell-based
Description: (§7) Two strains of N. gonorrheae, penicillin-sensitive (Pen-S) Strain 1279 and penicillin-resistant (Pen-R) Strain 31426, were cultured overnight on Gc agar. A 0.5 McFarland was prepared immediately before wells were to be inoculated, and the two strains were each diluted to a concentration of 10^8 in FB. The bacteria-containing FB for each strain was split into four tubes, in which a different concentration of penicillin was added to each of the tubes of the two strains: 2.0 μg/ml, 1.0 μg/ml, 0.5 μg/ml, and buffer alone as a negative control. Microtiter wells were coated with 100 μl of a 1:200 dilution of rabbit polyclonal antibody directed against N. gonorrheae, and allowed to stand at 4 degrees Celsius overnight. […] Following blocking, wells were again washed three times with PBS. At this stage, the plates were either used immediately, or stored at 4 degrees Celsius for later use. Upon proceeding with the assay, 100 μl of the 10^8 dilution of the two strains of N. gonorrheae were placed in individual wells. The wells were shaken gently on a plate stirrer at room temperature for 15 minutes. Next, wells were washed three times with PBS, and 100 μl of an HRP-conjugated rabbit polyclonal antibody (1:50 dilution in PBS) directed against N. gonorrheae was added to the wells and incubated at room temperature for 5 minutes. Wells were washed three times with PBS, and then bound antibody was detected by the addition of 100 μl of TMB substrate. OD450) was read after allowing the plate to stand for three minutes at room temperature and stopping the reaction with stop solution (KPL). Negative controls consisted of the same preceding steps, but the addition of bacteria was omitted.

[7] = system: penicillin-sensitive (Pen-S) Strain 1279; experiment: as above; type: cell-based; conditions: penicillin 0.5, 1.0, 2.0 μg/ml, 10^8 bacteria
Description: as §7

Compound: CO/N=C(\C(=O)N[C@@H]1C(=O)N2C(C(=O)O)=C(CSc3nc(=O)c(=O)[nH]n3C)CS[C@H]12)c1csc(N)n1 [Ceftriaxone, ceftriaxone]
- Detection of Neisseria gonorrheae ([1]; 18 hour incubation in nutrient broth, 0.1 CFU/ml): +
- Detection of Neisseria gonorrheae ([1]; 18 hour incubation in nutrient broth, 1 CFU/ml): +
- Detection of Neisseria gonorrheae ([1]; 18 hour incubation in nutrient broth, 10 CFU/ml): +
- Detection of Neisseria gonorrheae ([1]; 18 hour incubation in nutrient broth, 100 CFU/ml): +
- Detection of Neisseria gonorrheae ([1]; 18 hour incubation in nutrient broth, 1,000 CFU/ml): +
- Detection of Neisseria gonorrheae ([1]; 18 hour incubation in nutrient broth, 10,000 CFU/ml): +
- N-Assay result of wells containing N. gonorrheae [2]: negative

Compound: CCC[C@@H]1C[C@@H](C(=O)N[C@@H]([C@H]2O[C@H](SC)[C@H](O)[C@@H](O)[C@H]2O)[C@H](C)Cl)N(C)C1 [Clindamycin, clindamycin]
- Detection of GBS ([3]; 10 CFU/ml): +
- Detection of GBS ([3]; 100 CFU/ml): +
- Detection of GBS ([3]; 1,000 CFU/ml): +
- Detection of GBS ([3]; 10,000 CFU/ml): +
- lowest dilution at which GBS resistant to Clindamycin was positive ([3]; summary of Table 1, incubated 24 hours at 37° C. with Clindamycin): 100 bacteria/ml

Compound: CC1(C)S[C@@H]2[C@H](NC(=O)Cc3ccccc3)C(=O)N2[C@H]1C(=O)O [Penicillin G, penicillin G]
- N-Assay result of wells containing E. faecalis ([4]; Table 2, with Penicillin G): negative
- Detection of Enterococcus faecalis ([4]; 100,000 CFU/ml): +
- Detection of Enterococcus faecalis ([4]; 1,000,000 CFU/ml): +
- Detection of Enterococcus faecalis ([4]; 10,000,000 CFU/ml): +
- lowest dilution at which E. faecium was positive ([5]; Table 2, with Penicillin G): 100 bacteria/ml
- Detection of Enterococcus faecium ([5]; 1 CFU/ml): +
- Detection of Enterococcus faecium ([5]; 10 CFU/ml): +
- Detection of Enterococcus faecium ([5]; 100 CFU/ml): +
- Detection of Enterococcus faecium ([5]; 1,000 CFU/ml): +
- Detection of Enterococcus faecium ([5]; 10,000 CFU/ml): +
- Detection of Enterococcus faecium ([5]; 100,000 CFU/ml): +
- Detection of Enterococcus faecium ([5]; 1,000,000 CFU/ml): +
- Detection of Enterococcus faecium ([5]; 10,000,000 CFU/ml): +
- OD450 signal of bound N. gonorrheae between concentrations of penicillin ([6]; penicillin 0.5, 1.0, 2.0 μg/ml, 10^8 bacteria, Pen-R Strain 31426): did not significantly vary
- growth by turbidity at OD600 ([6]; wells containing Pen-R strain 31426 with penicillin): increasing turbidity
- OD450 signal of bound N. gonorrheae with increasing concentrations of penicillin [7]: progressively decreasing positive signal

From patent US9034583B2, “Rapid enzyme-linked immunosorbent assay for detection and identification of pathogens and determination of antimicrobial susceptibility” (priority 2013, dated 2015)
